This is an account of results in PubChem BioAssay (NCI).

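Results reflect a 48-hour exposure of cells in 96-well plates to compound at five concentrations. GI50 is the concentration that inhibits growth by half. TGI: concentration producing complete growth inhibition.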 Bounds are passed on as bounds.

Among the test systems are CCRF-CEM leukemia; HT29 colon; MALME-3M melanoma; OVCAR-3 ovarian; SF-268 CNS; SNB-75 CNS; SW-620 colon; TK-10 renal; UACC-257 melanoma; A498 renal.
Common to all, as to assay: NCI tumour cell line growth inhibition, 48 h

Turning to `O=C1c2ccccc2C(=O)c2nc3ccc(Cl)cc3cc21`, the TGI with CCRF-CEM leukemia, in the assay with HT29 colon, in the assay on MALME-3M melanoma, with OVCAR-3 ovarian, with SF-268 CNS and in the assay on SNB-75 CNS was > 100 µM in each case. The TGI in the assay with SW-620 colon and in the assay on TK-10 renal was > 100 µM throughout.

Take `COc1ccc2nc3ccccc3c(NCCCCN(C)CCCl)c2c1`: the TGI with CCRF-CEM leukemia was found to be 0.229 µM; with HT29 colon, 1.46 µM; in the assay with MALME-3M melanoma it was 1.06 µM; with OVCAR-3 ovarian it was 0.712 µM; with SF-268 CNS it was 0.756 µM; with SNB-75 CNS, 0.504 µM. Moreover, the TGI was 0.2 µM with SW-620 colon, > 31.9 µM in the assay on TK-10 renal and 4.93 µM with UACC-257 melanoma.

In the case of `CC1=C(C(=O)Nc2ccc(Cl)c(Cl)c2)C(c2ccccc2O)NC(=O)N1` (stereo unspecified), the GI50 with CCRF-CEM leukemia is > 50 µM; in the assay on OVCAR-3 ovarian, 19.1 µM; with SF-268 CNS it was 46.9 µM; in the assay on SNB-75 CNS it was 25.9 µM; with SW-620 colon it was > 50 µM; in the assay on TK-10 renal, 22.1 µM. Moreover, in the assay on UACC-257 melanoma, the GI50 was > 50 µM. In addition, the TGI in the assay with CCRF-CEM leukemia, with OVCAR-3 ovarian, in the assay with SF-268 CNS, with SNB-75 CNS, in the assay on SW-620 colon and in the assay on TK-10 renal was > 50 µM each time. Besides, the TGI with UACC-257 melanoma was > 50 µM.

As to `CCOC(=O)C1COc2cc(-c3cc(=O)c4ccccc4o3)ccc2O1` (stereo unspecified), the TGI is > 100 µM with CCRF-CEM leukemia; 56.3 µM in the assay on HT29 colon; > 100 µM in the assay on MALME-3M melanoma; > 100 µM in the assay on OVCAR-3 ovarian; > 100 µM in the assay on SF-268 CNS; > 100 µM with SNB-75 CNS. Besides, the TGI in the assay with SW-620 colon and in the assay on TK-10 renal was > 100 µM in each case.

With `OCNCCNc1nc2ccccc2c2[nH]c3ccccc3c12`, the GI50 in the assay on A498 renal was 1.55 µM; with HT29 colon, 0.556 µM; in the assay on OVCAR-3 ovarian, 1.31 µM; in the assay on SF-268 CNS it was 1.36 µM; in the assay on SNB-75 CNS it was 2.28 µM; with SW-620 colon, 0.366 µM. The GI50 with TK-10 renal is 1.76 µM; in the assay on UACC-257 melanoma, 1.64 µM. The TGI was 4.46 µM with A498 renal; > 50 µM in the assay with HT29 colon; 3.67 µM in the assay on OVCAR-3 ovarian; 6.44 µM in the assay with SF-268 CNS; 11.6 µM with SNB-75 CNS; 2.22 µM in the assay with SW-620 colon. Further, the TGI stood at 9.89 µM in the assay on TK-10 renal and 5.71 µM in the assay with UACC-257 melanoma.

On to `Cc1ccc(NC(=O)CC(=O)N2N=C(N(CCC#N)c3cccc(C)c3)CC2c2ccccc2)cc1` (stereo unspecified), for which the TGI with CCRF-CEM leukemia, in the assay with HT29 colon, in the assay on MALME-3M melanoma, in the assay on OVCAR-3 ovarian, with SF-268 CNS and in the assay with SNB-75 CNS was > 100 µM each time. The TGI in the assay on SW-620 colon and in the assay on UACC-257 melanoma was > 100 µM throughout.

`COc1cccc(C2NC(=S)NC(C)=C2C(=O)Nc2ccc(Cl)c(Cl)c2)c1` (stereo unspecified): the GI50 is 8.88 µM in the assay with OVCAR-3 ovarian; 9.13 µM in the assay with SF-268 CNS; 34.8 µM in the assay on SNB-75 CNS; 22.3 µM in the assay on SW-620 colon; 12.8 µM with TK-10 renal; 12.4 µM with UACC-257 melanoma. Besides, the TGI was 18.2 µM in the assay on OVCAR-3 ovarian; 18.7 µM with SF-268 CNS; > 50 µM in the assay on SNB-75 CNS; > 50 µM with SW-620 colon; 28.6 µM in the assay on TK-10 renal; 28.9 µM with UACC-257 melanoma.

`COc1ccc(C2CCc3cc4c(cc3/C2=N/OC(C)=O)OCO4)cc1OC` (stereo unspecified): the TGI is > 100 µM in the assay on CCRF-CEM leukemia; > 100 µM in the assay with HT29 colon; 55.2 µM in the assay with MALME-3M melanoma; 55.9 µM in the assay on OVCAR-3 ovarian; > 100 µM with SF-268 CNS; 75 µM with SNB-75 CNS. Besides, the results for the TGI in the assay with SW-620 colon, in the assay with TK-10 renal and in the assay on UACC-257 melanoma were > 100 µM, > 100 µM and 51.6 µM, respectively.

For the compound `CC1(C)CC[C@]2(C(N)=O)CC[C@]3(C)C(=CC[C@@H]4[C@@]5(C)C/C(=C/c6ccncc6)C(=O)C(C)(C)[C@@H]5CC[C@]43C)[C@@H]2C1`, the GI50 in the assay on A498 renal was 1.7 µM; with CCRF-CEM leukemia it was 2.13 µM; in the assay on MALME-3M melanoma, 1.71 µM; in the assay with OVCAR-3 ovarian it was 1.87 µM; in the assay with SF-268 CNS, 2.15 µM; in the assay with SNB-75 CNS it was 2.48 µM. Also, the results for the GI50 in the assay with SW-620 colon, in the assay on TK-10 renal and in the assay with UACC-257 melanoma were 2.04 µM, 2.43 µM and 2.32 µM, respectively. The TGI is 3.38 µM with A498 renal; 5.45 µM with CCRF-CEM leukemia; 3.27 µM with MALME-3M melanoma; 3.45 µM with OVCAR-3 ovarian; 5.49 µM in the assay with SF-268 CNS; 8.22 µM in the assay with SNB-75 CNS. The TGI with SW-620 colon is 4.62 µM; in the assay with TK-10 renal, 7.5 µM; in the assay on UACC-257 melanoma, 6.68 µM.

For the compound `COc1cc2cc3c4c(cc(OC)c(OC)c4c2cc1OC)CCN3C(=O)CCC(=O)NCCCN(C)C`, the TGI with CCRF-CEM leukemia was 88.2 µM; in the assay with HT29 colon, 51.7 µM; in the assay on MALME-3M melanoma, > 100 µM; in the assay on OVCAR-3 ovarian it was > 100 µM; in the assay on SF-268 CNS, > 100 µM; in the assay on SNB-75 CNS it was 53.2 µM. In addition, the TGI with SW-620 colon, in the assay with TK-10 renal and in the assay with UACC-257 melanoma was > 100 µM each time.

Turning to `CC1COCC(C)N1C1=C(Cl)C(=O)c2ccccc2C1=O` (stereo unspecified), the GI50 was 14.4 µM with A498 renal; 17.5 µM in the assay with HT29 colon; 1.5 µM in the assay with MALME-3M melanoma; 1.56 µM with OVCAR-3 ovarian; 7.85 µM with SF-268 CNS; 10.7 µM with SNB-75 CNS. The figures for the GI50 in the assay with SW-620 colon, in the assay on TK-10 renal and in the assay on UACC-257 melanoma were 1.74 µM, 13 µM and 1.6 µM, respectively. The TGI with A498 renal turned out to be 27.6 µM; in the assay on HT29 colon, 45.6 µM; in the assay with MALME-3M melanoma, 2.97 µM; in the assay with OVCAR-3 ovarian it was 2.92 µM; with SF-268 CNS it was 21.1 µM; in the assay with SNB-75 CNS it was 23.2 µM. For the same compound, the TGI worked out at 3.24 µM in the assay with SW-620 colon, 26.2 µM in the assay on TK-10 renal and 3.08 µM in the assay on UACC-257 melanoma.

Take `C[C@@H]1C[C@]2(C[C@@H](C)C3[C@@H](CC4(C)[C@@H]5CCC6C(C)(C)OC(=O)C=C[C@]67C[C@@]5(CC[C@]34C)OO7)O2)OC1=O` (stereo partly specified): the TGI is > 100 µM with HT29 colon; > 100 µM in the assay with MALME-3M melanoma; 66.3 µM in the assay with OVCAR-3 ovarian; 56.9 µM in the assay with SNB-75 CNS; > 100 µM in the assay with SW-620 colon; > 100 µM in the assay with TK-10 renal. Further, in the assay on UACC-257 melanoma, the TGI was > 100 µM.
